Experimental data from patent publication US4141986A, “Antibiotics 890A2 and 890A5” (Merck & Co., Inc., priority 1977, dated 1979).

Key:
Solubility in water = type: physicochemical; conditions: sodium salt, white powder as lyophilized
[1] = tested on: Vibrio percolans ATCC 8461; test: Bioassay I, agar plate disc-diffusion potency per HAEA308 unit; type: cell-based; conditions: Vibrio percolans ATCC 8461, Bioassay I
Method: An agar plate disc-diffusion method is employed using either Vibrio percolans ATCC 8461 or Salmonella gallinarum MB-1287 as tester organism. A purified sample of antibiotic 890A1 is used as standard. Antibiotic 890A1 is prepared according to the procedure set forth in Example 5.
Plates containing Vibrio percolans ATCC 8461 are prepared as follows:
A lyophilized culture of Vibrio percolans ATCC 8461 is suspended in 15 ml. of a sterilized medium containing 8 g./liter of Difco Nutrient Broth and 2 g./liter of yeast extract in distilled water "nutrient broth-yeast extract" (herein after designated NBYE). The culture is incubated overnight on a rotary shaker at 28° C. […]
Filter paper discs of one-half inch diameter are dipped into the solution to be assayed, and are placed on the agar. […] The diameter of the zone of inhibition is measured after appropriate incubation (9-18 hours at 37° C. for Salmonella gallinarum MB-1287 or 12-24 hours at 25° C. for Vibrio percolans ATCC 8461.) If necessary, dilutions of the solutions to be assayed are made in 0.05M potassium phosphate buffer, pH 7.4 "potassium phosphate buffer" (hereinafter referred to as KPB), or in deionized water.
Calculations of potencies proceed as follows: a slope is determined by measuring the zone diameters of a solution of antibiotic 890A2 or 890A5 and of a four-fold dilution (in KPB) of this solution. […]

CC(=O)NC=CSC1=C(C(=O)O)N2C(=O)C(C(C)O)C2C1 (centres unmarked) [Antibiotic 890A2]
solubility in water (Solubility in water): very soluble in water

CC(=O)NC=CSC1=C(C(=O)O)N2C(=O)C(C(C)O)C2C1 (centres unmarked) [Antibiotic 890A5]
antibiotic potency (ratio of bioactivity to HAEA308) [1]: 12 units per HAEA308 unit
